From US20230277508A1, “USE OF COMPOUND AS CYP2E1 INHIBITOR” (SHANGHAI LING XI BIOTECHNOLOGY DEVELOPMENT CO., LTD., priority 2020, published 2023)

Key:
[1] = test system: liver steatosis and hepatitis in mice caused by a high-fat diet; test: Mouse liver steatosis and hepatitis model induced by a high-fat diet; assay type: in vivo, C57/6J mice; conditions: 22 weeks, vs model group
Protocol: Experimental method: Healthy male C57/6J mice were fed with a high-fructose, high-fat, and high-cholesterol feed to prepare mouse liver steatosis and hepatitis models, and a control group was fed with a low-fat and low-sugar control feed. An SMI0 intervention group was divided into a low-dose intervention group and a high-dose intervention group, which were intragastrically administered with the compound SMI0 at 30 mg/kg and 150 mg/kg every day from the beginning of modeling to the 22nd week of modeling. At the end of the 22-week experiment, blood was collected from the orbit, a body weight was measured, and then the mice each were sacrificed. The weight and appearance of a liver (color, texture, and presence or absence of nodules of the liver) were recorded. Some liver specimens were subjected to HE staining and then observed, and a steatosis score of mice in each group was recorded; and Masson staining was conducted to evaluate a liver fibrosis status of mice, and an oil red O staining area percentage and an LCA staining inflammation score were determined (model group, n=8 mice; SMI0 compound low-dose group, […]).
The pathological results of HE staining of a liver tissue were subjected to quantitative scoring based on the following criteria to determine a steatosis severity:
The pathological results of Masson staining of a liver tissue were subjected to quantitative scoring based on the following criteria to determine a fibrosis severity: […]

[2] = test system: lung cancer cell line Lewis in situ transplanted tumor; test: Mouse lung cancer model, in situ implantation of Lewis cells into lungs; assay type: in vivo, C57BL/6N mice
Protocol: Experimental method: A female C57 mouse lung cancer model with an in situ transplanted tumor was prepared with a lung cancer cell line Lewis at a cell amount of 2*10^4. C57BL/6N mice were divided into a control group, a model group, a positive drug group, and an SMI0 intervention group, and the modeling took 18 days (control group, n=20; model group, n=20; positive drug group (20 mg/kg), n=15; SMI0 (3.3 mg/kg), n=15; SMI0 (10 mg/kg), n=20; and SMI0 (30 mg/kg), n=20). At the end of the experiment, a body weight of mice in each group was recorded, blood was collected from the orbit, the mice were sacrificed, and lung tissues and tumor tissues were collected and weighed. The weight and appearance of the lung (color, texture, or the like of the lung) were recorded. All tumors of an animal were cumulatively arranged together to indicate the tumorigenesis of the animal, and a cumulative weight of lung tumors in each animal was determined. Some lung specimens were subjected to HE staining, and then the lung lesion and tumorigenesis of mice in each group were observed.
Experimental method: A WB method was used to detect the expression of […] cytokines TGF-β, IL-10, and IL-4, inflammation-associated signaling pathway proteins IL-6/p-STAT3 and p-ERK1/2/ERK1/2, and epithelial-mesenchymal transition (EMT)-associated proteins MMP-2 and MMP-9 in the mouse paracancerous lung tissue of each group and detect the expression of […] proteins caspase3 and Bcl-2 and an autophagy-associated protein p53 in the tumor tissue.

[3] = target: T1, CYP2E1 (Mus musculus, UniProt Q05421); test: CYP2E1 activity (liver microsome) in in situ transplanted mouse glioma model; assay type: in vivo; conditions: SMI0 intervention group vs model group, P<0.001
T1 construct: from tissue; host or cells: liver microsomes of treated model mice (calcium precipitation)
T1 sequence (Q05421 whole entry): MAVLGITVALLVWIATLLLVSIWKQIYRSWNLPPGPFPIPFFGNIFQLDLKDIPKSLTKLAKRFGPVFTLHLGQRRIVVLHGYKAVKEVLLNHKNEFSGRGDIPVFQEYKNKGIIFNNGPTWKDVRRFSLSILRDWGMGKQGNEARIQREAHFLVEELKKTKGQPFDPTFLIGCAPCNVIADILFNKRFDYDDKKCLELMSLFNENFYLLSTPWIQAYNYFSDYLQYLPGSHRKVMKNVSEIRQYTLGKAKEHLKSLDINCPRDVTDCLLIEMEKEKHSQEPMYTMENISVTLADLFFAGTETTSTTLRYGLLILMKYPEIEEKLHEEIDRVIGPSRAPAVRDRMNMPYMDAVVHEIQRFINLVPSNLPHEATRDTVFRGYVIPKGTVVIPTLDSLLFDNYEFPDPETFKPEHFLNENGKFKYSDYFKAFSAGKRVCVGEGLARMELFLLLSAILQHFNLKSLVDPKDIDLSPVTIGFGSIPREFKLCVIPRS
Protocol: Experimental method: A calcium precipitation method was used to prepare a mouse liver microsome, and a Braford method was used to determine a protein concentration in the microsome. An incubation system was prepared with 2×PBS, a CZX solution, and the liver microsome at a final concentration of 0.5 mg/mL, and then pre-incubated at 37° C. for 5 min; NADPH was added to initiate a reaction, and a resulting mixture was incubated at 37° C. for 30 min and then placed on ice to terminate the reaction; and ethyl acetate was added to extract 6-hydroxychlorzoxazone, a resulting mixture was vortexed and centrifuged, and a resulting upper organic phase was collected and blow-dried with nitrogen. A peak area of a CZX metabolite 6-hydroxychlorzoxazone was detected by HPLC under the following conditions: methanol:water=56:44, and detection wavelength: 287 nm. A concentration A C of the metabolite 6-hydroxychlorzoxazone was calculated through substitution into a standard curve; and a reaction rate of conversion of CZX into 6-hydroxychlorzoxazone was calculated according to V(pmol/min/mg)=(ΔC*1000)/(B*T) to evaluate an enzymatic activity of CYP2E1, where B represents a protein concentration of the microsome (mg/mL) and T represents an incubation time (min). A correlation between CYP2E1 activity and tumor size in the mouse glioma model was analyzed.

[4] = test system: GL261 cells / M2 microglial cells; test: GL261 cells co-cultivated with M2 microglial cells; assay type: cell-based, mouse; conditions: SMI0 50 μmol/L vs M2 microglial cell co-cultivation group
Protocol: (§1) Experimental method: 10 1-2 d newborn C57BL/6 WT mice and 6 CYP2E1^−/− mice were taken, primary microglial cells and astrocytes were collected and inoculated into 6-well plates, and 24 h later, culture supernatants were taken and co-cultivated with glioma cells. Experimental groups: control group; M2 model group; high-concentration, medium-concentration, and low-concentration SMI0 (50 μmol/L, 12.5 μmol/L, and 3.1 μmol/L) groups; and CYP2E1 gene-knockout group. 24 h later, supernatants were discarded; and […] and IL-13 each were added at 20 ng/mL to induce the transformation of microglial cells into the M2 type in the M2 model group and the high-concentration, medium-concentration, and low-concentration SMI0 groups, and different concentrations of SMI0 (50 μmol/L, 12.5 μmol/L, and 3.1 μmol/L) were also added in the intervention groups. The proliferation of glioma cells was determined by a CCK8 method, and an apoptosis proportion was determined by an Annexin V-FITC-PI apoptosis staining kit.

[5] = test system: U251 cells / M2 microglial cells; test: U251 cells co-cultivated with M2 microglial cells; assay type: cell-based, human; conditions: SMI0 50 μmol/L vs M2 microglial cell co-cultivation group, P<0.001
Protocol: as §1

[6] = SMI0 high-dose 150 mg/kg ig daily
[7] = SMI0 low-dose 30 mg/kg ig daily
[8] = WB, SMI0 30 mg/kg vs model group, P<0.05

## CC(=O)c1scnc1C [SMI0]
[1]; [6]
  liver inflammation level (number of LCA-positive cell staining foci): significantly reduced
  oil red O staining area percentage: significantly reduced
  steatosis score: significantly reduced
[1]; [7]
  liver coefficient: significantly reduced
  oil red O staining area percentage: significantly reduced
  steatosis score: significantly reduced
[2]; WB, SMI0 30 mg/kg vs model group, P<0.01
  expression of the autophagy-associated protein p53 in the tumor tissue: significantly increased
[2]; [8]
  expression of Bcl-2 in the tumor tissue: significantly reduced
  expression of caspase3 in the tumor tissue: significantly reduced
[2]; WB, SMI0 intervention group vs model group, P<0.05
  expression of proinflammatory cytokines (TGF-β and IL-10), IL-6/p-STAT3, p-ERK1/2/ERK1/2, MMP-2 and MMP-9 in the paratumoral tissue: significantly reduced
[2]; as high as, SMI0 intervention group (3.3, 10, 30 mg/kg), 18 days, lung tumor weight
  tumor proliferation inhibition rate: 68.3%
[3]
  CYP2E1 activity: significantly reduced
[4]
  apoptosis of GL261 cells: promoted
[4]; P<0.001
  proliferation of GL261 cells: significantly inhibited
[5]
  proliferation of U251 cells: significantly inhibited
